Measurements from patent US8948863B2, “Photokinetic ocular drug delivery methods and apparatus” (priority 2009, dated 2015).

Experiments:
[1] = Histological examination of Franz cell mounted sclera after PODD exposure; parameters: species or system ovine; conditions: MTX formulation, 60 minute exposure, 350 nm LED light
Experimental: (§1) Sclera samples were taken and placed in formalin as follows: Normal control sclera with no exposure to drug or light, Franz cell 60 minute control drug only exposure and Franz cell 60 minute exposure to both drug and 350 nm LED light. Fixed slides were evaluated for structural integrity and gross appearance by a pathologist blinded as to the origin of the sample tissue.
as §1, with “Normal” for “Sclera samples were taken and placed in formalin as follows: Normal”, “light were taken and placed in formalin.” for “light.”, “masked” for “blinded”

[2] = Franz cell sclera tissue permeation, PODD (pulsed LED light) vs passive controls; conditions: for levels of MTX recovered from Franz recipient cell: p<0.05 vs passive controls
Experimental: A traditional “up and down” vertical Franz cell skin perfusion apparatus as described above was adapted and used for this sclera tissue permeation model. […] Two wavelengths of light were selected of this facilitated permeation study. Samples of the Franz recipient solution were taken at 15, 30 and 60 minutes of photokinetic exposure and passive controls and analyzed by HPLC.
Franz cells (PermeGear, Inc, Bethlehem Pa.) having an 11.28 mm diameter permeation area, 1.0 cm^2 were used in the MTX experiment. A photokinetic ocular drug delivery (PODD)-modified Franz cell testing device was configured so that it accommodated the placement of LEDs within the donor chamber. The cells were placed within an aluminum block heater 35.5° C. on a magnetic stir bar setup (Custom manufactured by PermeGear, Inc, Bethlehem Pa.).
Discrete wavelength LEDs were purchased from Roithner Lasertechnick GmbH, Vienna, Austria as follows: 351 nm, #RTL350-30; 370 nm, #RLS-UV370. Peak emitting wavelengths are ±10 nm at the 50% radiance output. The LEDs were driven by a square wave pulse generator built by the investigators for this study. The adjustable square wave pulse generator provided pulsed electrical energy set at 24 cycles per second (CPS) with a 50% pulse duration (ON 50%, OFF 50% of the time). Driver current to the LEDs was limited to or slightly below the manufacturers specified drive current level to avoid exogenous heat generation. […] A donor cell contains the test drug (in this example, methotrexate (MTX)) in a solvent formulation. The recipient cell is filled with a balance salt solution. Samples for chemical analysis are taken from the side arm 27 of the Franz apparatus as discussed above. Control cells are set up the same, but without the LED. LEDs are driven by a square wave pulse generator (not shown) at a voltage slightly less than the manufacture's specified voltage.
Ovine eyes were procured by enucleation within one hour after euthanasia and placed in tissue culture medium with antibiotics and antimycotics and refrigerated at 4° C. Sclera tissue was dissected from the eyes and placed between the donor and recipient chambers of the Franz apparatus. Sclera was stored for a maximum of 30 hours in the tissue culture at 4° C. before the start of the experiment.
Methotrexate (MTX; (4-Amino-10-methylfolic acid hydrate); available from Sigma-Aldrich Corp., St. Louis, Mo.) was dissolved in a permeation enhancement carrier of water, 30% propylene glycol, 5% Ethyl Lactate, 0.1% Azone, and 0.75% hyaluronic acid as a gelling agent, with 0.1% neolone 850 as a preservative. An infinite donor sink model was used wherein 0.75 grams of the drug formulation (1.875 mg of each) was placed in the Franz donor cells. Hanks isotonic salt solution served as the Franz recipient cell fluid.
HPLC analysis was performed according to a method developed in our lab. Briefly, a Beckman Coulter system consisting of 125 pumps, 508 auto sampler and 168 diode array detector was used with an XTerra RP-C18, 150×40 mm, 3 μm column. The analytes were eluted with a gradient mobile phase from 25-30% Methanol in HPLC grade water with 0.1% Trifluoroacetic Acid (TFA) and flow rate of 0.7 ml/min. 32 Karat™ software (Beckman Coulter, Inc.) was used for acquisition of chromatograms.
The Franz recipient cell balanced salt solution was analyzed by the HPLC method for MTX concentration.

[3] = rabbit
Description: Exogenous human insulin can be differentiated from the endogenous rabbit insulin; the human insulin FITC (fluorescein isothiocyanate) fluorescent tag further allows for tracking of the drug within the tissues.
In this series, rabbits were fitted with transscleral photokinetic device, such as shown in FIG. 1 of this disclosure, for one hour. […] Images were taken of the posterior optic disc, the area where the retina, optic nerve and blood vessels come together on the posterior segment of the eye.

[4] = Photokinetic transdermal permeation study; format: in vitro ADME, human; conditions: similar photokinetic conditions
Description: Scleral tissue is more permeable than human skin. The practical upper molecular weight limit with the PODD system is unknown and may be determined by the specific molecular configuration rather than molecular weight per se.

With `CN(Cc1cnc2nc(N)nc(N)c2n1)c1ccc(C(=O)N[C@@H](CCC(=O)O)C(=O)O)cc1` [MTX, 4-Amino-10-methylfolic acid hydrate] the “histological examination, PODD exposure compared to passive control and normal sclera” value [1] was “no differences between the samples”, the “structural integrity of the sclera” value [1] was “grossly intact and undamaged” and the “levels of MTX recovered from Franz recipient cell” value ([2]; PODD 350 nm group, 24 CPS, 30 and 60 minute time points) was “significant”. The “levels of MTX recovered from Franz recipient cell” value ([2]; PODD 370 nm group, 24 CPS, 15, 30 and 60 minute time points) was “significant”, the “total MTX flux (compared with the therapeutic level)” value ([2]; PODD, up to 60 minutes, 1.0 cm^2 ovine sclera) was < 400 µg and the “flux rate, 370 nm group compared to the 350 nm group” value ([2]; all time points (15, 30, 60 minutes), 24 CPS) was “much higher flux rate”. The “MTX permeation through the scleral tissue, PODD cells” value ([2]; both wavelengths of light tested (350 nm and 370 nm), 24 CPS, vs passive controls) was “improvement”.
In the case of “FITC-labeled human insulin: human insulin modified at the N-terminus of the B-chain with an FITC conjugate/tag, 5733 Daltons, Invitrogen”, the “fluorescence in the optic disc, passive permeation” value [3] is reported as “did not show fluorescence”, the “fluorescence image of the optic disc after 1 hour of PODD” value ([3]; in vivo) is reported as “reached the posterior segment of the rabbit's eye” and the “fluorescence, contralateral eye” value ([3]; in vivo) is reported as “no fluorescence”.
With hyaluronic acid the “flux rates through intact human skin” value [4] was “significant flux rates”.
